Experimental data reported in US20100029012A1, “Method for identifying modulators of the NRF2-KEAP1-AREP pathway” (priority 2006, published 2010).

Tests used:
[1] = molecular target: T1, His-tagged Keap1-kelch domain polypeptide (Homo sapiens, UniProt Q14145); test: Antibody-based binding assay, displacement of 3H-labeled Nrf2 Peptide 2; details: Keap1-kelch domain polypeptide immobilized via anti-His tag antibody; about 1 nm to about 100 μM; FIG. 2
T1 construct: the Keap1-kelch domain polypeptide comprises amino acid residues 322 to 609 of the human Keap1 protein; made in house; host or cells: E. coli Rosetta2 BL21 pLysS, plasmid pET15b-Keap1-kelch domain
T1 sequence (Q14145 322-609): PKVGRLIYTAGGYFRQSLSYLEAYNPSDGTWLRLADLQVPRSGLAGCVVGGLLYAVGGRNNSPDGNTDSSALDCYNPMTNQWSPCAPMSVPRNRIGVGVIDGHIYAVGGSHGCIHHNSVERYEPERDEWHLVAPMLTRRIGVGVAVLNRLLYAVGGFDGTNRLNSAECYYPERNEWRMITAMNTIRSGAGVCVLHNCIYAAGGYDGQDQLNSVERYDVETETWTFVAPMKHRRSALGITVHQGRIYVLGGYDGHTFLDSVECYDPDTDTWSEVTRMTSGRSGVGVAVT
Description: This example provides a protocol for an antibody-based binding assay for identifying activators of the Nrf2-Keap1 system. Because Keap1 protein's or Keap1-kelch domain polypeptide's binding to the assay plate surface is not dependent on divalent metal cations such as nickel, the antibody-based assay is also useful for determining whether the competitive effect observed in an ion-based assay was a result of the analyte competing with binding of the labeled Peptide 2 with the Keap1-kelch domain or with the binding of the Keap1 protein or Keap1-kelch domain polypeptide with divalent cations on the plate. In general, the assay is performed as follows.
One μg/mL of mouse-derived anti-His tag antibody (Catalog No. 35370, Quiagen, Valencia, Calif.) is added to anti-mouse IgG-coated white plates (Catalog No. 15234, Pierce Biotechnology, Inc.) and incubated at room temperature for two hours. The plate is then washed with four chamber volumes of PBS to remove any excess antibody.
Controls include […] unlabeled Nrf2 Peptide 2 and 0.5% DMSO.
During the last 15 minutes of the 4° C. incubation, one L of cold PBS-T is added to the Liquid 1 wash bottle of the EMBLA 96/384 plate washer (Molecular Devices Corporation, Sunnyvale, Calif.). The instrument is primed using program ‘A1’ a minimum of three times. […]

[2] = system: His tagged Green Fluorescent Protein (GFP); details: relative to DMSO; FIG. 3
Description: In this assay, His tagged Green Fluorescent Protein (GFP) retention on a divalent metal cation surface is monitored in the presence of analytes.
Stock solutions containing analytes at various concentrations or 500 nL DMSO and controls are transferred into the wells of a CHOICECOAT metal chelate white 384 well plates (Catalog No. NC15140, Pierce Biotechnology, Inc.). The volume is 500 nL per well. Controls include 100 μM unlabeled Peptide 2 and 0.5% DMSO.
An assay solution containing one μg His tagged GFP protein in PBS (per well) is prepared and 50 μL of this assay solution is dispensed into each well of the 384 well plates. The plates are covered and incubated at room temperature for two hours. Following the room temperature incubation, the plates are cooled by incubating in a 4° C. refrigerator for one hour. The plates are then washed by aspirating the well, adding 80 uL of PBS-T, aspirating the well, adding 80 uL of PBS-T, and aspirating the well.

[3] = molecular target: T2, recombinant human His-tagged Keap1-kelch domain polypeptide (human, UniProt Q14145 322-609); test: method not stated; binding affinity for the kelch domain
T2 construct: domain: kelch domain; Expressed in E. coli from pET15b between NdeI and BamHI; also called recombinant Keap1-kelch domain; kelch domain of the Keap1 protein; not shown: N-terminal six-histidine tag from vector pET15b
T2 sequence (Q14145 322-609): as above

CC[C@H](C)[C@H](NC(=O)[C@@H]1CCCN1C(=O)[C@H](CC(C)C)NC(=O)[C@H](Cc1ccccc1)NC(=O)[C@H](CCC(=O)O)NC(=O)CNC(=O)[C@@H](NC(=O)[C@H](CCC(=O)O)NC(=O)[C@H](CCC(=O)O)NC(=O)[C@H](CC(=O)O)NC(=O)[C@H](CC(C)C)NC(=O)[C@H](CCC(N)=O)NC(=O)[C@@H](N)CC(C)C)[C@@H](C)O)C(=O)N[C@@H](CCC(N)=O)C(=O)O [Peptide 2, NH2-LQLDEETGEFLPIQ-OH] was tested. Which “competition with labeled Peptide 2 for binding to the kelch domain (result in words)” value [1] did it give?
The value was “result from this assay expected for an analyte that competes”.

What about the “percent inhibition of binding of the GFP to the nickel on the surface of the plate” value [2] of the same molecule?
The value was 0%.

Which binding affinity [3] does the source give for LLVDGETGESFPAQ [Nrf1 peptide LLVDGETGESFPAQ] here?
Its binding affinity is ~397 nM.

RKRNVESGEEELAS [Pgam5 peptide RKRNVESGEEELAS] was tested. Which binding affinity [3] did it give?
The binding affinity was ~626 nM.
